Results on 19 compounds are retold here after patent publication US7968570B2, “Isoindolone compounds and their use as metabotropic glutamate receptor potentiators” (AstraZeneca AB, priority 2004, dated 2011).

pEC50: −log10 of the molar value.

T1 sequence (Q14416 19-872): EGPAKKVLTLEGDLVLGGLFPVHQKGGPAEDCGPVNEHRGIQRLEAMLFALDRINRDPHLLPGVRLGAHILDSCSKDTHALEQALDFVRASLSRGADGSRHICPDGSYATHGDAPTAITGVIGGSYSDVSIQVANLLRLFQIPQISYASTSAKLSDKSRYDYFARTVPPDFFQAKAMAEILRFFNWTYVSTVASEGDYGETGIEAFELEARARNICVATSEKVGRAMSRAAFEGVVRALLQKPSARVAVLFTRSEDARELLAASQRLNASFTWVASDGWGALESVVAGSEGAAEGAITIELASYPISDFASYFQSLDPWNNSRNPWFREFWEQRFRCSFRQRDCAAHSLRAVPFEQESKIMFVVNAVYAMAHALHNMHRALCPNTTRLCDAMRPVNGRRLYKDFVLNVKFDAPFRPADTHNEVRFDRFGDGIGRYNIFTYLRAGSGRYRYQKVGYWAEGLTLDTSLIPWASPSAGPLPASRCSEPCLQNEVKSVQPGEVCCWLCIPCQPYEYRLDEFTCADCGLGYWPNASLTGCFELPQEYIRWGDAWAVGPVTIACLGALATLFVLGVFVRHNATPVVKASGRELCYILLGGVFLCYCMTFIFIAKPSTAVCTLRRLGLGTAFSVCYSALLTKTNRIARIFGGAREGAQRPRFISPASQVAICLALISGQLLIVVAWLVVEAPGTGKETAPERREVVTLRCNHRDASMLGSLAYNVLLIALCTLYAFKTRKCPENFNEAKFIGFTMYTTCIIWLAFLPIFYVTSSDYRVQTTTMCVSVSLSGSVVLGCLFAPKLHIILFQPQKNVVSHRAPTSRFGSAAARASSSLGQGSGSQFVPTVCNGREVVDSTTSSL

One assay concerns the target T1, human mGluR2 receptor (Homo sapiens, UniProt Q14416).
T1 construct: expressed in transfected cells
Description: [35S]-GTPγS binding assay of mGluR2 receptor activation. It is filed as biochemical.
Conditions: not given
In a few lines:
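CHO membranes stably expressing human mGluR2 (30 μg) preincubated 15 min at room temperature with compound (3 nM–300 μM), then 1 μM glutamate, 30 μM GDP, 0.1 nM [35S]-GTPγS, 30 min at 30° C in HEPES/NaCl/MgCl2. Filtration counting; EC50 and Emax relative to maximal glutamate effect by non-linear regression.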
By pEC50 is commonly meant the negative decadic logarithm of the EC50, by convention in mol/L. A low value points to a high EC50. The compound `CCN1CCC(Cc2cc(C)c3c(c2)CN(Cc2ccc(OC(F)(F)F)cc2)C3=O)CC1` [Example 166, 5-(1-Ethyl-piperidin-4-ylmethyl)-7-methyl-2-(4-trifluorometh-oxy-benzyl)-2,3-dihydro-isoindol-1-one] had a negative logarithm of the EC50 (pEC50) of 6.28. In turn, `CCN(CC)Cc1noc(-c2cc(C)c3c(c2)CN(Cc2ccc(OC(F)(F)F)cc2)C3=O)n1` [Example 177, 5-(3- Diethylaminomethyl-[1,2,4]oxadiazol-5-yl)-7-methyl-2-(4-trifluorometh-oxy-benzyl)-2,3-dihydro-isoindol-1-one] had a pEC50 of 6.85. The compound `Cc1cc(CC2CCN(C(C)C)CC2)cc2c1C(=O)N(Cc1ccc(OC(F)(F)F)cc1)C2` [Example 174, 5-(1-isopropyl-piperidin-4-ylmethyl)-7-methyl-2-(4-trifluorometh-oxy-benzyl)-2,3-dihydro-isoindol-1-one] gave a negative logarithm of the EC50 (pEC50) of 6.13.

In turn, `Cc1cc(CC2CCN(Cc3ccc(C#N)cc3)CC2)cc2c1C(=O)N(Cc1ccc(OC(F)(F)F)cc1)C2` [Example 171, 4-{4-[7-methyl-1-oxo-2-(4-trifluorometh-oxy-benzyl)-2,3-dihydro-1H-isoindol-5-ylmethyl]-piperidin-1-ylmethyl}-benzonitrile] gave a pEC50 of 7.40.

The assay is the same for the next values; noted with them: membranes from CHO cells stably expressing human mGluR2; 1 μM glutamate.
With `Cc1cc(N2CCN3CCCC3C2)cc2c1C(=O)N(Cc1ccc(OC(F)(F)F)cc1)C2` (stereo not shown) [Example 111, 5- (Hexahydropyrrolo [1,2-a]pyrazin-2-yl)-7-methyl-2-(4-trifluoromethoxybenzyl)-2,3-dihydroisoindol-1-one], the negative logarithm of the EC50 (pEC50) is 6.22. With `O=C1c2c(Cl)cc(N3CCOCC3)cc2CN1Cc1ccc(OC(F)(F)F)cc1` [Example 155, 7-Chloro-5-morpholin-4-yl-2-(4-trifluoromethoxy-benzyl)-2,3-dihydro-isoindol-1-one], the pEC50 is 6.28. In turn, `COCCCNCc1cc(C)c2c(c1)CN(Cc1ccc(OC(F)(F)F)cc1)C2=O` [Example 51, 5-[(3-Methoxy-propylamino)-methyl]-7-methyl-2-(4-trifluoromethoxy-benzyl)-2,3-dihydro-isoindol-1-one] showed a pEC50 of 5.74. For `Cc1cc(-c2cccnc2)cc2c1C(=O)N(Cc1ccc(OC(F)(F)F)cc1)C2` [Example 95, 7-Methyl-5-pyridin-3-yl-2-(trifluoromethoxybenzyl)-2,3-dihydroisoindol-1-one], the pEC50 was 7.30.

Consider `Cc1ccc(CN2Cc3cc(NC4CCN(C(=O)OC(C)(C)C)C4)ccc3C2=O)cc1` (stereo not shown) [Example 110, 3-[2-(4-Methyl-benzyl)-1-oxo-2,3-dihydro-1H-isoindol-5-ylamino]-pyrrolidine-1-carboxylic acid tert-butyl ester], for which the negative logarithm of the EC50 (pEC50) is 5.60. `Cc1cc(CNC2Cc3ccccc3C2)cc2c1C(=O)N(Cc1ccc(OC(F)(F)F)cc1)C2` [Example 48, 5-(Indan-2-ylaminomethyl)-7-methyl-2-(4-trifluoromethoxy-benzyl)-2,3-dihydro-isoindol-1-one]: the pEC50 is 6.39. `Cc1cc(CN2CCOCC2)cc2c1C(=O)N(Cc1ccc(OC(F)(F)F)cc1)C2` [Example 44, 7-Methyl-5-morpholin-4-ylmethyl-2-(4-trifluoromethoxy-benzyl)-2,3-dihydro-isoindol-1-one] gave a pEC50 of 6.23. Regarding `O=C1c2ccc(N3CCN(c4ccncc4)CC3)cc2CN1Cc1ccc(OC(F)(F)F)cc1` [Example 149, 5-(4-Pyridin-4-yl-piperazin-1-yl)-2-(4-trifluoromethoxy-benzyl)-2,3-dihydro isoindol-1-one], the pEC50 is 5.01.

Take `Cc1cc(C(=O)N2CCN(CCc3ccncc3)CC2)cc2c1C(=O)N(Cc1ccc(OC(F)(F)F)cc1)C2` [Example 163, 7-Methyl-5-[4-(2-pyridin-4-yl-ethyl)piperazine-1-carbonyl]-2-(4-trifluoromethoxy-benzyl)-2,3-dihydro-isoindol-1-one]: the pEC50 was 5.92. The same measure, in the same setting: under `COc1cc(-c2cccnc2)cc2c1C(=O)N(Cc1ccc(OC(F)(F)F)cc1)C2` [Example 100, 7-Methoxy-5-pyridin-3-yl-2-(4-trifluoromethoxy-benzyl)-2,3-dihydroisoindol-1-one] stands 6.66; under `COc1cc(N2CCN3CCCC3C2)cc2c1C(=O)N(Cc1ccc(Cl)cc1)C2` (stereo not shown) [Example 129], 5.20. The compound `Cc1cc(N2CCN(Cc3ccncc3)CC2)cc2c1C(=O)N(Cc1ccc(N3CCN(Cc4ccncc4)CC3)cc1)C2` [Example 142, 7-Methyl-5-(4-pyridin-4-ylmethyl-piperazin-1-yl)-2-[4-(4-pyridin-4-ylmethyl-piperazin-1-yl)-benzyl]-2,3-dihydro-isoindol-1-one] had a negative logarithm of the EC50 (pEC50) of 5.39. In the case of `Cc1cc(N2CCC(N(C)C)C2)cc2c1C(=O)N(Cc1ccc(Cl)cc1)C2` (stereo not shown) [Example 119, 2-(4-chlorobenzyl)-5-(3-dimethylamino-pyrollidin-1-yl)-7-methyl-2,3-dihydroisoindol-1-one], the negative-log EC50 (pEC50) was 6.38. The same measure, in the same setting: under `COCCN1CCN(c2cc(Cl)c3c(c2)CN(Cc2ccc(OC(F)(F)F)cc2)C3=O)CC1` [Example 154, 7-Chloro-5-[4-(2-methoxy-ethyl)-piperazin-1-yl]-2-(4-trifluoromethoxy-benzyl)-2,3-dihydro-isoindol-1-one] stands 6.68; under `Cc1cc(N2CCN(Cc3ccncc3)CC2)cc2c1C(=O)N(Cc1ccc(OC(F)(F)F)cc1)C2` [Example 136, 7-Methyl-5-(4-pyridin-4-ylmethyl-piperazin-1-yl)-2-(4-trifluoromethoxy-benzyl)-2,3-dihydro-isoindol-1-one], 6.15.
